Literature values as cited in patent US11471445B2, “Compositions for the prevention and treatment of acute renal injury” (AKI Therapeutics ApS, priority 2017, dated 2022).

Columns and labels:
[1] = tested on: IRI; conditions: in vivo
[2] = tested on: cerebral ischemia-reperfusion injury; conditions: mice
[3] = tested on: hepatic IRI; conditions: rats, pretreatment
[4] = tested on: rat heart; conditions: pretreatment
[5] = 30 min after intravenous injection

In the case of `COc1ccc([C@@H]2CC(=O)c3c(O)cc(O[C@@H]4O[C@H](CO[C@@H]5O[C@@H](C)[C@H](O)[C@@H](O)[C@H]5O)[C@@H](O)[C@H](O)[C@H]4O)cc3O2)cc1O` [Hesperidin, hesperidin], the “effect on IRI / ischemia” value [1] is listed as “protective effects on IRI in various organs”.
In the case of `CC(C)[C@]12O[C@H]1[C@@H]1O[C@]13[C@]1(O[C@H]1C[C@H]1C4=C(CC[C@@]13C)C(=O)OC4)[C@@H]2O` [Triptolide], the water solubility is given as “very low water solubility”.
In the case of `COc1ccc(-c2cc(=O)c3c(O)cc(O[C@@H]4O[C@H](CO[C@@H]5O[C@@H](C)[C@H](O)[C@@H](O)[C@H]5O)[C@@H](O)[C@H](O)[C@H]4O)cc3o2)cc1O` [diosmin], the “effect on cerebral ischemia-reperfusion injury” value [2] is given as “ameliorates the consequences of IRI”, the “consequences of hepatic IRI” value [3] is given as “ameliorates the consequences of IRI” and the “consequences of IRI in ex vivo rat heart” value [4] is given as “ameliorates the consequences of IRI”.
For “triptolide-lysozyme conjugate: Triptolide conjugated to lysozyme by an ester linkage with a succinic acid spacer”, the “renal concentration of conjugate relative to equivalent dose of drug” value [5] is given as 20 fold.
In the case of β-escin, the “effect on IRI / ischemia” value [1] is given as “ameliorates the effects of focal cerebral ischemia”.
